In patent publication EP2805715A1, “Inhibitors of RNR2 subunit of ribonucleotide reductase to impair reverse transcription of hiv related lentiviruses in macrophages and use thereof for the treatment of hiv infected patients” (INSTITUT PASTEUR, priority 2013, dated 2014):
Structures can show the parent of a compound that is named as a salt. Where two headings read alike, the source gives them in different places.

Key:
MDM = MDM viability; type: cell-based, human
HIV-1/VSV-G = type: cell-based

| Compound | MDM viability (MDM) | HIV-1 replication, fold changes of luciferase activity with respect to mock treated cells (HIV-1/VSV-G) | MDM viability (MDM; at the concentrations used in the assays (data not shown)) |
| --- | --- | --- | --- |
| CC(=O)N(O)CCCCCNC(=O)CCC(=O)N(O)CCCCCNC(=O)CCC(=O)N(O)CCCCCN [DFO, Deferoxamine mesylate] | not affected | Dose dependent inhibition |  |
| NC(=O)NO [HU, Hydroxyurea] |  | Dose dependent inhibition | not affected |
